Consider ten molecules from ChEMBL document CHEMBL3769339, “Synthesis of indole-derived allocolchicine congeners exhibiting pronounced anti-proliferative and apoptosis-inducing properties” (Medchemcomm, 2015).

Active and inactive are the calls of the source. The rule behind the calls is not given here.

In series [1] the test system is BJAB. Nature of the series: Antiproliferative activity against human BJAB cells after 24 hrs by CASY cell counting method. Format: functional, cell-based.
Series [2] relates to BJAB. Nature of the series: Induction of apoptosis in human BJAB cells assessed as DNA fragmentation after 72 hrs by flow cytometry. Format: functional, cell-based. On the technique in general: In flow cytometry, cells or beads pass a laser one at a time.
Series [3] relates to BJAB. As to the kind of experiment: Antiproliferative activity against human BJAB cells at AC50 after 24 hrs by CASY cell counting method. The format is functional.
Series [4] concerns BJAB. Nature of the series: Cytotoxicity against human BJAB cells assessed as necrosis at AC50 after 72 hrs by LDH release assay. The format is cell-based. (In general: LDH in the medium is a marker of cell lysis.)
Series [5] in a line: Inhibition of sheep tubulin polymerization by fluorescence based assay. Details: species or system Ovis aries.
Series [6] deals with BJAB. As to the kind of experiment: Antiproliferative activity against human BJAB cells assessed as cell count at 0.01 uM after 24 hrs by CASY cell counting method (reference value: 2.02 10^5/ml). Format: functional.
The test system of series [7] is BJAB. Nature of the series: Antiproliferative activity against human BJAB cells assessed as cell count at 0.001 uM after 24 hrs by CASY cell counting method (reference value: 2.02 10^5/ml). The format is functional.
Series [8] relates to BJAB. As to the kind of experiment: Cytotoxicity against human BJAB cells assessed as necrosis at 5 uM after 1 hr by LDH release assay. Format: cell-based.
For a further series, the species on record is Ovis aries. As to the kind of experiment: Inhibition of sheep tubulin polymerization at 0.75 to 7.5 uM by fluorescence based assay.
The subject of series [9] is BJAB. Nature of the series: Antiproliferative activity against human BJAB cells assessed as cell count at 0.005 uM after 24 hrs by CASY cell counting method (reference value: 2.02 10^5/ml). Format: functional.
Series [10] deals with BJAB. Nature of the series: Antiproliferative activity against human BJAB cells assessed as cell count at 0.1 uM after 24 hrs by CASY cell counting method (reference value: 2.02 10^5/ml). Format: functional.
Series [11] deals with BJAB. As to the kind of experiment: Antiproliferative activity against human BJAB cells assessed as cell count at 0.5 uM after 24 hrs by CASY cell counting method (reference value: 2.02 10^5/ml). Format: functional.
Series [12] relates to BJAB. As to the kind of experiment: Antiproliferative activity against human BJAB cells assessed as cell count at 1 uM after 24 hrs by CASY cell counting method (reference value: 2.02 10^5/ml). The format is functional.
Series [13] has as its system BJAB. Nature of the series: Antiproliferative activity against human BJAB cells assessed as cell count at 5 uM after 24 hrs by CASY cell counting method (reference value: 2.02 10^5/ml). The format is functional.
Series [14] concerns BJAB. As to the kind of experiment: Antiproliferative activity against human BJAB cells assessed as cell count at 10 uM after 24 hrs by CASY cell counting method (reference value: 2.02 10^5/ml). Format: functional.
Series [15] has as its system BJAB. As to the kind of experiment: Antiproliferative activity against human BJAB cells assessed as cell count at 30 uM after 24 hrs by CASY cell counting method (reference value: 2.02 10^5/ml). Format: functional.
For series [16], the system named is BJAB. As to the kind of experiment: Antiproliferative activity against human BJAB cells assessed as cell count at 50 uM after 24 hrs by CASY cell counting method (reference value: 2.02 10^5/ml). The format is functional.
Series [17] relates to BJAB. As to the kind of experiment: Antiproliferative activity against human BJAB cells assessed as cell count at 100 uM after 24 hrs by CASY cell counting method (reference value: 2.02 10^5/ml). The format is functional.
Series [18] deals with BJAB. As to the kind of experiment: Antiproliferative activity against human BJAB cells assessed as cell count at 0.05 uM after 24 hrs by CASY cell counting method (reference value: 2.02 10^5/ml). The format is functional.

In the case of `COc1cc2c(c(OC)c1OC)-c1cc3c(ccn3C)cc1C(NC(C)=O)CC2` (racemic), in the series with BJAB [1], the Activity entry was “Dose-dependent effect” and the IC50 – broadly, the midpoint of a concentration-inhibition curve – is above 100000 nM. In addition, in the series on BJAB [2], the AC50 (as a rule, the concentration giving half of the maximal activity seen) is above 100000 nM and the Activity result was “Dose-dependent effect”.

Take `COc1cc2c(c(OC)c1OC)-c1cc3c(ccn3C)cc1C(N)CC2` (racemic): in the series with BJAB [1], the Activity result was “Dose-dependent effect” and the IC50 was found to be 500 nM. In addition, in the series with BJAB [2], the AC50 is 5000 nM and the Activity result is “Dose-dependent effect”. In addition, in the series with BJAB [3], the “inhibition (INH)” value came to 90%. Besides, in the series on BJAB [4], the Activity was found to be 29%.

Take `COc1cc2c(c(OC)c1OC)-c1cc3c(ccn3C)cc1C(N=[N+]=[N-])CC2` (racemic): in the series with BJAB [1], the Activity result is “Dose-dependent effect” and the IC50 came out at 50000 nM. Further, in the series with BJAB [2], the concentration at half-maximal activity (AC50) was above 100000 nM and the Activity entry was “Dose-dependent effect”. Moreover, the “inhibition (INH)” value in the series on BJAB [3] was found to be 30%. For the same molecule, the Activity in the series on BJAB [4] came to 1%.

In turn, `COc1ccc(/C=C\c2cc(OC)c(OC)c(OC)c2)cc1O` [COMBRETASTATIN A4] returned an IC50 in series [5] of 90 nM.

Consider `COc1cc2c(c(OC)c1OC)-c1cc3c(ccn3C)cc1C(OC(C)=O)CC2` (racemic), for which the Activity with BJAB [6] was 1.9 ×10⁵ /ml; in the series with BJAB [1], “Dose-dependent effect”; with BJAB [2] it was “Dose-dependent effect”; with BJAB [7], 2 ×10⁵ /ml; in the series with BJAB [4] it was 0%; in the series on BJAB [8], “Non-toxic”. Also, the Activity with BJAB [9] is listed as 1.87 ×10⁵ /ml; in the series with BJAB [10], 1.17 ×10⁵ /ml; in the series with BJAB [11], 1.21 ×10⁵ /ml; with BJAB [12], 1.09 ×10⁵ /ml; with BJAB [13] it was 1.1 ×10⁵ /ml; in the series on BJAB [14], 1.13 ×10⁵ /ml. Also, the Activity was found to be 1.12 ×10⁵ /ml with BJAB [15], 1.02 ×10⁵ /ml with BJAB [16], 0.97 ×10⁵ /ml in the series on BJAB [17] and 1.11 ×10⁵ /ml with BJAB [18]. For the same molecule, the results for the IC50 (in the series on BJAB [1]; in series [5]) were 10 nM and 125 nM, respectively. Moreover, the AC50 in the series with BJAB [2] was 50 nM. The “inhibition (INH)” value in the series with BJAB [3] is reported as 89%. The inhibition entry in the series listed under Ovis aries is “Active”.

Take `COc1cc2c(c(OC)c1OC)-c1cc3c(ccn3C)cc1C(O)CC2` (racemic): in the series with BJAB [1], the Activity result was “Dose-dependent effect” and the IC50 came to 1 nM. In the series with BJAB [2], the AC50 turned out to be 1 nM and the Activity result is “Dose-dependent effect”. Also, the “inhibition (INH)” value in the series with BJAB [3] came out at 52%. Further, in the series on BJAB [4], the Activity is 7%.

In [5], `COc1cc2c(c(OC)c1OC)-c1ccc3c(ccn3C)c1C(O)CC2` (racemic) gave an IC50 of 228 nM.

`COc1cc2c(c(OC)c1OC)-c1cc3ccn(C)c3cc1C(O)CC2` (racemic) gave an IC50 in [5] of 264 nM.

`COc1cc2c(c(OC)c1OC)-c1cc3c(ccn3C)cc1C(=O)CC2`: the figures for the Activity result in the series with BJAB [1], with BJAB [2] and in the series with BJAB [4] were “Dose-dependent effect”, “Dose-dependent effect” and 4%, respectively. Besides, half-maximal inhibition with BJAB [1] (IC50) required 10 nM. For the same molecule, in the series on BJAB [2], the half-maximal activity concentration (AC50) was 50 nM. In the series on BJAB [3], the “inhibition (INH)” value turned out to be 98%.

On to `COc1cc2c(c(OC)c1OC)-c1ccc(OC)c(=O)cc1[C@@H](NC(C)=O)CC2` [COLCHICINE], for which, in the series with BJAB [1], the Activity entry was “Dose-dependent effect” and the IC50 is 20 nM. For the same molecule, in the series with BJAB [2], the AC50 came out at 30 nM and the Activity result was “Dose-dependent effect”. The molecule also yielded an IC50 in series [5] of 375 nM.
